Here are results for four molecules from patent publication US9242992B2, “Crystal form of tricyclic benzopyran compound and production method thereof” (NISSAN CHEMICAL INDUSTRIES, LTD., priority 2009, dated 2016).

Holding throughout (type): physicochemical
Data set [1] is described as follows: Acceleration test (total impurities by HPLC). As to conditions: for Increase of impurities in acceleration test (in words) / Total amount of impurities by HPLC, measured value after test: 40° C., 75% RH, 6 months, air-tight container; for Total amount of impurities by HPLC, initial value: Test Example 2, before the acceleration test. As to the method:
The A-, B- and E-form crystals of Compound (1) were subjected to an acceleration test. The conditions for the test were as follows.
Acceleration test: 40° C., 75% RH, 6 months, in an air-tight container
(§1) In addition, the stability of the crystals was evaluated by the degree of increase of the total amount of impurities by HPLC analysis.

A short description of data set [2]: Solubility, Japanese Pharmacopoeia dissolution test in JP2 pH 6.8. The conditions noted are these: for Solubility: JP2, pH 6.8, 60 minutes, 10 mg in 500 mL, 37° C. How it is done: The solubility and the specific surface area of the A-form, B-form, E-form and F-form crystals of Compound (1) were examined.
[Measurement conditions] JP2, pH 6.8 (3.40 g of potassium dihydrogen phosphate and 3.55 g of anhydrous disodium hydrogen phosphate is dissolved in water to obtain 1 liter of solution. The 1 volume of the solution is mixed with the 1 volume of water to obtain JP2, pH 6.8.), 60 minutes
according to the Japanese Pharmacopoeia fifteenth edition, dissolution test (Protocol of the dissolution test; sample amount: 10 mg, test solution: JP2, pH 6.8, 500 mL, sampling point: 5, 15, 30, 60 min, paddle rotational speed: […], bath temperature: 37° C.)

A short description of data set [3]: Thermostability, humidity stability and photostability tests (total impurities by HPLC). As to conditions: for Total amount of impurities by HPLC, initial value: Test Example 1, before the stability tests. How it is done:
The thermostability, humidity stability and photostability of the A-, B- and F-form crystals of Compound (1) were examined.
The conditions for each test were as follows.
Thermostability test: 60° C., humidity was not controlled, 2 weeks, in air-tight container
Humidity stability test: 25° C., 90% RH, 2 weeks, in opened container
Photostability test: 200 W/m^2·hr, 25° C., 60% RH, 57 hours, in opened container
as §1

The nature of data set [4]: Water adsorption analysis. As to conditions: 25° C., sample 0.2 g, pre-treatment 60° C. 20 hours. As to the method:
The A-, B- and E-form crystals of Compound (1) were evaluated by water adsorption analysis.
[Measurement conditions] sample amount: 0.2 g; pre-treatment: 60° C., 20 hours; temperature 25° C., Volumetric adsorption apparatus (trade name: BELSORP 18 manufactured by BEL Japan, Inc.) was used.

Data set [5] is described as follows: Specific surface area by BET method (nitrogen adsorption). The conditions noted are these: for Specific surface area: BET, adsorption temperature 77K, equilibrium time 300 seconds. As to the method: [Measurement conditions] adsorption temperature: 77K, adsorption equilibrium time: 300 seconds
[Measured value unit] square meter/gram
The measurement was performed by the BET method using the nitrogen adsorption in liquid nitrogen after a pre-treatment in refluxed liquid nitrogen.

The nature of data set [6]: High-temperature XRD measurement. As to the method:
The A-form and B-form crystals of Compound (1) were subjected to the high-temperature XRD measurement.
As shown in FIG. 8 and FIG. 9, there was observed no change until 100° C. in the powder X-ray diffractogram of the A-form crystal and until 60° C. in the powder X-ray diffractogram of the B-form crystal.

With `Cc1cc(CO)nc2cc3c(cc12)OC(C)(C)[C@H](O)[C@H]3NCCc1ccccc1` [A-form crystal, (3R,4S)-7-hydroxymethyl-2,2,9-trimethyl-4-(phenethylamino)-3,4-dihydro-2H-pyrano[2,3-g]quinolin-3-ol], in data set [1], the “Increase of impurities in acceleration test (in words)” value is “no increase of impurities”. Moreover, the “Total amount of impurities by HPLC, measured value after test” value (shortened to “Total amount of impurities … after test”) in data set [1] is given as 0.80%. Moreover, the results for the “Total amount of impurities by HPLC, initial value” (“Total amount … initial value” for short) in data set [1] and in data set [3] were 0.70% and 0.84%, respectively. Further, the “Solubility in the JP2 solution (in words)” value in data set [2] (JP2, pH 6.8) is listed as “high solubility”. For the same molecule, the Solubility in data set [2] turned out to be 36%. For the same molecule, the “Increase of impurities under the conditions (in words)” value in data set [3] (thermostability, humidity stability and photostability tests) is “no increase of impurities”. In addition, the entries for the “Adsorption of water (in words)” value in data set [4] and in data set [4] (listed as A-form) were “less than that on E-form crystal” and “no adsorption of water”, respectively. Further, the “Specific surface area (in words)” value in data set [5] (BET method) is recorded as “high value”. The Specific surface area in data set [5] is 0.7 square meter/gram. Moreover, in data set [6], the “Temperature until which no change was observed in the powder X-ray diffractogram” value turned out to be 100 °C.
Consider `Cc1cc(CO)nc2cc3c(cc12)OC(C)(C)[C@H](O)[C@H]3NCCc1ccccc1` [B-form crystal, (3R,4S)-7-hydroxymethyl-2,2,9-trimethyl-4-(phenethylamino)-3,4-dihydro-2H-pyrano[2,3-g]quinolin-3-ol], for which, in data set [1], the “Total amount of impurities … after test” value was 1.15% and the “Total amount … initial value” is given as 0.42%. The molecule also showed a Solubility in data set [2] of 27%. The “Total amount … initial value” in data set [3] worked out at 0.55%. Also, the “Adsorption of water (in words)” value in data set [4] was “the adsorption of water was observed, the adsorption was reversible”. This molecule showed a Specific surface area in data set [5] of 0.3 square meter/gram. Also, in data set [6], the “Temperature until which no change was observed in the powder X-ray diffractogram” value was 60 °C.
For the molecule `Cc1cc(CO)nc2cc3c(cc12)OC(C)(C)[C@H](O)[C@H]3NCCc1ccccc1` [E-form crystal, (3R,4S)-7-hydroxymethyl-2,2,9-trimethyl-4-(phenethylamino)-3,4-dihydro-2H-pyrano[2,3-g]quinolin-3-ol], in data set [1], the “Increase of impurities in acceleration test (in words)” value was “no increase of impurities”; the “Total amount of impurities … after test” value is given as 0.64%; the “Total amount … initial value” came out at 0.64%. The same molecule came in with a Solubility in data set [2] of 23%. For the same molecule, in data set [4], the “Adsorption of water (in words)” value was “no adsorption of water”. In data set [5], this molecule yielded a Specific surface area of 0.3 square meter/gram.
`Cc1cc(CO)nc2cc3c(cc12)OC(C)(C)[C@H](O)[C@H]3NCCc1ccccc1` [F-form crystal, (3R,4S)-7-hydroxymethyl-2,2,9-trimethyl-4-(phenethylamino)-3,4-dihydro-2H-pyrano[2,3-g]quinolin-3-ol] came in with a Solubility in data set [2] of 30%. Further, in data set [3], the “Total amount … initial value” was found to be 0.25%.
